US12077503B2, “Substituted cyclic amides and their use as herbicides” (FMC CORPORATION, priority 2015, dated 2024)

Columns and labels:
Format in all cases: in vivo
[1] = test system: barnyardgrass (Echinochloa crus-galli); assay: Test B flooded paddy test; conditions: Echinochloa crus-galli, 250 g ai/ha, Flood; 0 to 100 scale where 0 is no effect and 100 is complete control; read-out: Barnyardgrass plant response rating
Procedure, shortened: (§1)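 Greenhouse paddy pots with 2-leaf stage plants received compound by direct addition to floodwater 3 cm deep, kept at that level. Scored visually at 13–15 d versus controls (0 no effect; 100 complete control).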

rice (Oryra sativa) = assay: Test B flooded paddy test; conditions: Oryza sativa, 250 g ai/ha, Flood; 0 to 100 scale where 0 is no effect and 100 is complete control; read-out: Rice plant response rating
Procedure, shortened: as §1

[2] = test system: ducksalad (Heteranthera limosa); assay: Test B flooded paddy test; conditions: Heteranthera limosa, 250 g ai/ha, Flood; 0 to 100 scale where 0 is no effect and 100 is complete control; read-out: Ducksalad plant response rating
Procedure, shortened: as §1

[3] = test system: sedge, umbrella (small-flower umbrella sedge, Cyperus difformis); assay: Test B flooded paddy test; conditions: Cyperus difformis, 250 g ai/ha, Flood; 0 to 100 scale where 0 is no effect and 100 is complete control; read-out: Sedge, Umbrella plant response rating
Procedure, shortened: as §1

[4] = test system: barnyardgrass (Echinochloa crus-galli); assay: Test A postemergence; conditions: Echinochloa crus-galli, post-emergence, 240 h, Postemergence, read-out: Plant response rating, Barnyardgrass
Procedure, shortened: (§2)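 Preemergence directed soil spray on seeded pots, or postemergence application to plants 2–10 cm, one- to two-leaf. Solvent mixture non-phytotoxic, with surfactant. Scored ~10 d later, visually, 0–100 vs untreated.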

[5] = test system: ryegrass, Italian (Italian ryegrass, Lolium multiflorum); assay: Test A postemergence; conditions: Lolium multiflorum, post-emergence, 240 h, Postemergence, read-out: Plant response rating, Ryegrass, Italian
Procedure, shortened: as §2

[6] = test system: blackgrass (Alopecurus myosuroides); assay: Test A postemergence; conditions: Alopecurus myosuroides, post-emergence, 240 h, Postemergence, read-out: Plant response rating, Blackgrass
Procedure, shortened: as §2

[7] = test system: ragweed (common ragweed, Ambrosia elatior); assay: Test A postemergence; conditions: Ambrosia artemisiifolia, post-emergence, 240 h, Postemergence, read-out: Plant response rating, Ragweed
Procedure, shortened: as §2

corn (Zea mays) = assay: Test A postemergence; conditions: Zea mays, post-emergence, 240 h, Postemergence
Procedure, shortened: as §2

[8] = test system: giant foxtail (Setaria faberii); assay: Test A postemergence; conditions: Setaria faberi, post-emergence, 240 h, Postemergence, read-out: Plant response rating, Foxtail, Giant
Procedure, shortened: as §2

[9] = test system: Galium (catchweed bedstraw, Galium aparine); assay: Test A postemergence; conditions: Galium, post-emergence, 240 h, Postemergence, read-out: Plant response rating, Galium
Procedure, shortened: as §2

Kochia (Kochia scoparia) [10] = assay: Test A postemergence; conditions: Bassia scoparia, post-emergence, 240 h, Postemergence, read-out: Plant response rating, Kochia
Procedure, shortened: as §2

[11] = test system: pigweed (Amaranthus retroflexus); assay: Test A postemergence; conditions: Amaranthus retroflexus, post-emergence, 240 h, Postemergence, read-out: Plant response rating, Pigweed
Procedure, shortened: as §2

[12] = test system: wheat (Triticum aestivum); assay: Test A postemergence; conditions: Triticum aestivum, post-emergence, 240 h, Postemergence, read-out: Plant response rating, Wheat
Procedure, shortened: as §2

[13] = test system: barnyardgrass (Echinochloa crus-galli); assay: Test A preemergence; conditions: Echinochloa crus-galli, pre-emergence, 240 h, Preemergence
Procedure, shortened: as §2

[14] = test system: ryegrass, Italian (Italian ryegrass, Lolium multiflorum); assay: Test A preemergence; conditions: Lolium multiflorum, pre-emergence, 240 h, Preemergence
Procedure, shortened: as §2

[15] = test system: ragweed (common ragweed, Ambrosia elatior); assay: Test A preemergence; conditions: Ambrosia artemisiifolia, pre-emergence, 240 h, Preemergence
Procedure, shortened: as §2

[16] = test system: giant foxtail (Setaria faberii); assay: Test A preemergence; conditions: Setaria faberi, pre-emergence, 240 h, Preemergence
Procedure, shortened: as §2

Kochia (Kochia scoparia) [17] = assay: Test A preemergence; conditions: Bassia scoparia, pre-emergence, 240 h, Preemergence
Procedure, shortened: as §2

[18] = test system: pigweed (Amaranthus retroflexus); assay: Test A preemergence; conditions: Amaranthus retroflexus, pre-emergence, 240 h, Preemergence
[19] = 125 g ai/ha, visual injury after approximately 10 d, 0 to 100 scale where 0 is no effect and 100 is complete control
[20] = 31 g ai/ha, visual injury after approx. 10 d, 0 to 100 scale, 0 no effect, 100 complete control

CN1CC[C@H](c2ccccc2C(F)(F)F)[C@@H](C(=O)Nc2ccc(F)c(F)c2F)C1=O [Compound 1010]
0%: pest or weed control at 250 g/ha [1] | pest or weed control at 250 g/ha (rice (Oryra sativa)) | pest or weed control at 250 g/ha [2] | pest or weed control at 250 g/ha [3] | pest or weed control at 125 g/ha [4, 19] | pest or weed control at 31 g/ha [4, 20] | pest or weed control at 125 g/ha [5, 19] | pest or weed control at 31 g/ha [5, 20] | pest or weed control at 125 g/ha [6, 19] | pest or weed control at 31 g/ha [6, 20] | pest or weed control at 125 g/ha [7, 19] | pest or weed control at 31 g/ha [7, 20] | Corn plant response rating (crop injury, 0 = no effect, 100 = complete kill) at 125 g/ha (corn (Zea mays); [19]) | Corn plant response rating (crop injury, 0 = no effect, 100 = complete kill) at 31 g/ha (corn (Zea mays); [20]) | pest or weed control at 125 g/ha [8, 19] | pest or weed control at 31 g/ha [8, 20] | pest or weed control at 125 g/ha [9, 19] | pest or weed control at 31 g/ha [9, 20] | pest or weed control at 125 g/ha (Kochia (Kochia scoparia) [10]; [19]) | pest or weed control at 31 g/ha (Kochia (Kochia scoparia) [10]; [20]) | pest or weed control at 125 g/ha [11, 19] | pest or weed control at 31 g/ha [11, 20] | plant injury at 125 g/ha [12, 19] | plant injury at 31 g/ha [12, 20] | pest or weed control at 125 g/ha ([13]; 125 g ai/ha, visual injury rating after approximately 10 d, read-out: Barnyardgrass plant response rating (0 to 100 scale, 0 is no effect, 100 is complete control)) | pest or weed control at 31 g/ha ([13]; 31 g ai/ha, 0 to 100 scale (0 no effect, 100 complete control), read-out: Plant response rating, Barnyardgrass) | pest or weed control at 31 g/ha ([14]; 31 g ai/ha, 0 to 100 scale where 0 is no effect and 100 is complete control, read-out: Ryegrass, Italian plant response rating) | pest or weed control at 125 g/ha ([14]; 125 g ai/ha, visual injury rating after approximately 10 d, read-out: Ryegrass, Italian plant response rating (0 to 100 scale, 0 is no effect, 100 is complete control)) | pest or weed control at 31 g/ha ([15]; 31 g ai/ha, 0 to 100 scale where 0 is no effect and 100 is complete control, read-out: Ragweed plant response rating) | pest or weed control at 125 g/ha ([15]; 125 g ai/ha, visual injury rating after approximately 10 d, read-out: Ragweed plant response rating (0 to 100 scale, 0 is no effect, 100 is complete control)) | pest or weed control at 125 g/ha ([16]; 125 g ai/ha, visual injury rating after approximately 10 d, read-out: Foxtail, Giant plant response rating (0 to 100 scale, 0 is no effect, 100 is complete control)) | pest or weed control at 31 g/ha ([16]; 31 g ai/ha, 0 to 100 scale (0 no effect, 100 complete control), read-out: Plant response rating, Foxtail, Giant) | pest or weed control at 31 g/ha (Kochia (Kochia scoparia) [17]; 31 g ai/ha, 0 to 100 scale where 0 is no effect and 100 is complete control, read-out: Kochia plant response rating) | pest or weed control at 125 g/ha (Kochia (Kochia scoparia) [17]; 125 g ai/ha, visual injury rating after approximately 10 d, read-out: Kochia plant response rating (0 to 100 scale, 0 is no effect, 100 is complete control)) | pest or weed control at 31 g/ha ([18]; 31 g ai/ha, 0 to 100 scale where 0 is no effect and 100 is complete control, read-out: Pigweed plant response rating) | pest or weed control at 125 g/ha ([18]; 125 g ai/ha, visual injury rating after approximately 10 d, read-out: Pigweed plant response rating (0 to 100 scale, 0 is no effect, 100 is complete control))
